“And” between values parts separate entries of the source, which are not always exact repeats. Identical values can stand only once.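 Following 48 hours of exposure in 96-well plates, responses at five concentrations were used to interpolate endpoints linearly. GI50: concentration for 50% inhibition of growth. TGI denotes the concentration required for complete inhibition of growth.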
How the values were obtained:
Assay in all cases: NCI-60 cell line screen, 48 h
[1] = system: COLO 205 colon
[2] = system: HOP-92 NSCLC
[3] = system: KM12 colon
[4] = system: MALME-3M melanoma
[5] = system: MCF7 breast
[6] = system: NCI-H23 lung
[7] = system: OVCAR-8 ovarian
[8] = system: SK-MEL-2 melanoma
[9] = system: UACC-62 melanoma
[10] = system: UO-31 renal

SMILES	GI50 [1]	TGI [1]	GI50 [2]	TGI [2]	GI50 [3]	TGI [3]	GI50 [4]	TGI [4]	GI50 [5]	TGI [5]	GI50 [6]	TGI [6]	GI50 [7]	TGI [7]	GI50 [8]	TGI [8]	GI50 [9]	TGI [9]	GI50 [10]	TGI [10]
C=CCCCc1ccc(C(O)CCCCCCCCCCCC)o1 (stereo not drawn)	19.6 µM	38.6 µM	15.4 µM	31.9 µM	21.3 µM	46 µM	26 µM	72.1 µM	17.6 µM	48.3 µM	22.3 µM	52.5 µM	20.6 µM	44.9 µM	19.5 µM	42.9 µM	17.7 µM	43 µM	16.3 µM	30.3 µM
Cc1cccc2c(N)c3ccccc3nc12	0.463 µM	2.31 µM	2.18 µM	6.05 µM	1.78 µM	12.2 µM	1.39 µM	3.21 µM	1.32 µM	11.6 µM	1.81 µM	7.49 µM	0.94 µM	10.7 µM	1.68 µM	3.84 µM	1.56 µM	4.6 µM	0.595 µM	6.09 µM
[Cl][Cd][Cl]	> 46.7 µM and 12.9 µM	> 69.2 µM and 36.3 µM	> 80.2 µM and 15.2 µM	35.3 µM	17.9 µM and 9.62 µM	35.1 µM and 30.1 µM	5.5 µM and > 34.7 µM and 3.68 µM	> 49.4 µM and 9.41 µM	9.11 µM	19.2 µM	3.08 µM and 25.4 µM and 2.68 µM	58.1 µM and 10.8 µM	119 µM	272 µM	16.4 µM and 8.88 µM	24.8 µM and 18.9 µM	5.02 µM and 20.2 µM and 7.81 µM	35.9 µM and 20.8 µM	> 74 µM and 74.5 µM	131 µM
Oc1ccc(Cl)cc1CNc1nc2ccccc2[nH]1	16.8 µM	32.9 µM	2.37 µM	10.4 µM	13.3 µM	27 µM	13.8 µM	32.9 µM	10.4 µM	33.1 µM	14.3 µM	33.1 µM	12.9 µM	30.8 µM	15.9 µM	33 µM	13.8 µM	27.6 µM	4.73 µM	19.1 µM
CCCNc1nc2ccccc2c2c1S(=O)(=O)c1ccc(Cl)cc1C2=O	2.1 µM	> 50 µM	0.0899 µM	0.475 µM	1.49 µM	> 50 µM	1.46 µM	> 50 µM	1.09 µM	> 50 µM	1.66 µM	> 50 µM	1.58 µM	> 50 µM	1.92 µM	> 50 µM	1.28 µM	> 50 µM	1.11 µM	> 50 µM
CSc1cccc(NC(=O)OC2CCCCCCCCCCC2)c1		28.3 µM		> 100 µM		31.5 µM		59.1 µM		60.4 µM		98 µM		> 100 µM		39.4 µM		52.7 µM		22 µM
COc1ccc(C2=CC(c3ccc(OC)c(OC)c3)c3c(c4ccccc4oc3=O)O2)cc1OC (stereo not drawn)	2.04 µM	> 24.2 µM	4.8 µM	> 100 µM	1.25 µM	> 100 µM	> 100 µM	> 100 µM	0.424 µM	> 100 µM	4.91 µM	> 100 µM	4.9 µM	> 100 µM	12.2 µM	> 100 µM	0.473 µM	> 100 µM	1.58 µM	> 100 µM
CO[C@H]1CC(c2ccc[nH]2)=N[C@]12O[C@@H](C)C[C@@H]1CCCCCCCc3ccc([nH]3)[C@H]12	0.794 µM	4.68 µM	0.8 µM	4.81 µM	0.933 µM	6.15 µM	0.886 µM	3.62 µM	0.968 µM	> 16.7 µM	1.21 µM	8.03 µM	1.17 µM	> 33.3 µM	1.03 µM	4.21 µM	0.659 µM	1.45 µM	0.932 µM	4.2 µM
OCCN1CCN(CC/C=C2\c3ccccc3Sc3ccc(Cl)cc32)CC1	1.65 µM and 1.59 µM	3.24 µM and 3 µM	1.02 µM and 2.44 µM	6.1 µM and 14.1 µM	2.73 µM and 2.81 µM	6.02 µM and 7.34 µM	1.94 µM	3.8 µM	1.52 µM and 2.21 µM	3.34 µM and 5.45 µM	10.7 µM and 7.72 µM	28.2 µM and 21.4 µM	7.95 µM and 7.2 µM	28.3 µM and 19.8 µM	2.75 µM and 2.26 µM	5.98 µM and 4.9 µM	1.73 µM and 1.77 µM	3.61 µM and 3.44 µM	2.14 µM and 1.96 µM	7.66 µM and 6.24 µM
CNC(=O)OCC1C2=C(C(=O)C(C)=C(N)C2=O)N2CC3C(N3C)C12OC (stereo not drawn)		31.7 µM		> 100 µM				18.5 µM		> 100 µM		16.3 µM		> 100 µM		55.7 µM		22.2 µM		
Cc1cc2c(cc1N)C(C)C1(CCC(=O)N2Cc2ccccc2)OCCO1 (stereo not drawn)				> 100 µM		> 100 µM		> 100 µM		> 100 µM		> 100 µM		> 100 µM		> 100 µM		> 100 µM		> 100 µM
C/C=C(\C)C(=O)N[C@H]1C(O)C[C@]2(C)C3CC[C@@]4(C)C(CC[C@@H]4C(C)N(C)C)C3CCC2C1O (stereo partly drawn)	1.74 µM	3.48 µM	6.44 µM	33.4 µM	6.85 µM	25.8 µM	2.6 µM	7.47 µM	2.89 µM	17.4 µM	13.1 µM	49.7 µM	28.9 µM	> 90.8 µM	24.1 µM	49.1 µM	2.18 µM	4.54 µM	2.03 µM	5.73 µM
O=C1NCCS(=O)(=O)/C1=C\C=C\c1cccc(C(F)(F)F)c1	2.31 µM	5.2 µM	5.09 µM	16.4 µM	2.36 µM	6.67 µM	4.02 µM	17.2 µM	0.188 µM	11 µM	1.94 µM	8.02 µM	3.46 µM	16.8 µM	2.62 µM	9.77 µM	1.46 µM	3.89 µM	1.76 µM	3.79 µM
CC(=O)Oc1ccc(C(c2ccc(OC(C)=O)cc2)c2ccccn2)cc1	0.463 µM	36.5 µM and > 69.4 µM	0.861 µM	34.3 µM and > 94.1 µM	39.2 µM	> 100 µM	29.4 µM	> 100 µM	0.516 µM	> 100 µM	5.08 µM	> 100 µM	21.8 µM	> 100 µM	43.1 µM	> 100 µM	21.2 µM	> 100 µM	21.4 µM	> 100 µM
COc1cc2c3c(n(CCCN=[N+]=[N-])c(=O)c2cc1OC)-c1ccc(N(C)C)cc1C3=O	> 100 µM	> 100 µM	> 100 µM	> 100 µM	> 100 µM	> 100 µM	> 100 µM	> 100 µM	> 100 µM	> 100 µM	> 100 µM	> 100 µM	> 100 µM	> 100 µM	> 100 µM	> 100 µM	> 100 µM	> 100 µM	> 100 µM	> 100 µM
O=C(Nc1ccc(I)cc1F)c1cc(Cl)ccc1O	3.45 µM	11.2 µM	0.167 µM	0.505 µM	2.31 µM	6.01 µM	0.346 µM	1.83 µM	0.552 µM	> 19.8 µM	0.386 µM	3.79 µM	0.623 µM	11 µM	0.358 µM	1.99 µM	0.273 µM	1.05 µM	0.235 µM	1.65 µM
Cc1cccc(Nc2cnc(N)nc2N)c1		> 100 µM		> 100 µM		> 100 µM		> 100 µM		> 100 µM		> 100 µM		> 100 µM		> 100 µM		> 100 µM		> 100 µM
Cc1ccc(-c2nc(N3CCCNCC3)c3oc(-c4ccc(C)cc4)nc3n2)cc1	1.89 µM	3.55 µM	1.01 µM	2.3 µM	1.72 µM	3.2 µM	1.98 µM	3.61 µM	1.85 µM	3.88 µM	19.9 µM	88.2 µM	2.11 µM	4.22 µM	21.3 µM	45.4 µM	1.67 µM	3.08 µM	1.38 µM	2.68 µM
O=S(=O)(NCCNc1nccc(-c2c(-c3ccc(F)cc3)nc3sccn23)n1)c1ccccc1	2.23 µM	> 100 µM	1.34 µM	8.14 µM	4.12 µM	68.3 µM	5.82 µM	51.1 µM	0.722 µM	> 100 µM	16.2 µM	> 100 µM	4.17 µM	> 100 µM	7.5 µM	26.6 µM	5.13 µM	23.2 µM	1.83 µM	39.8 µM
CC(C)COC(=O)c1ccc2[nH]c(O)c(C=Nc3ccc(S(N)(=O)=O)cc3)c2c1	0.532 µM	1.91 µM	1.45 µM	4.22 µM	1.06 µM	3.87 µM	4.97 µM	10.9 µM	1.24 µM	4.5 µM	1.33 µM	5.11 µM	1.04 µM	4.62 µM	1.73 µM	4.19 µM	1.91 µM	6.08 µM	2.44 µM	10.2 µM
CC(Br)C(=O)Nc1ccc(C(=O)O)c(O)c1 (stereo not drawn)		> 100 µM		> 100 µM		> 100 µM		42.1 µM		> 100 µM		68.9 µM		> 100 µM		> 100 µM		> 100 µM		> 100 µM
O=[N+]([O-])c1ccc(S(=O)(=O)Cc2ccccc2)c2nonc12		31.1 µM		39.7 µM		38.7 µM		33.4 µM		43 µM		35.5 µM		49 µM		42.2 µM		35.1 µM		45.1 µM
CCOC(=O)c1c(C)c(C)n2c1NC(=O)C2		> 100 µM		> 100 µM		> 100 µM		> 85.7 µM		84 µM		> 68.5 µM		> 100 µM		> 100 µM		> 100 µM		> 100 µM
COc1cc2c(c(OC3OC(CO)C(O)C(O)C3O)c1)C(=O)CC(c1ccc(O)cc1)O2 (stereo not drawn)		> 100 µM		> 100 µM		> 100 µM				> 100 µM		> 100 µM		> 100 µM		> 100 µM		> 100 µM		> 100 µM
CN(/N=N/c1nc(OCc2ccccc2)c2[nH]cnc2n1)C(=O)Oc1ccc([N+](=O)[O-])cc1	10.2 µM	29.7 µM	7.17 µM	26.6 µM	8.49 µM	18.7 µM			12.4 µM	> 50 µM	8.44 µM	16.4 µM	9.81 µM	26.3 µM	11.9 µM	28.5 µM	7.5 µM	15.2 µM	6.58 µM	13.9 µM
COC(=O)[C@@H](C)C[C@H](Cc1ccccc1)NC(=O)c1csc([C@@H](C[C@H](C(C)C)N(C)C(=O)[C@H](C)NC(=O)[C@H]2CCCCN2C)OC(C)=O)n1	1.12 µM	20.2 µM	0.982 µM	> 25 µM	1.11 µM	> 25 µM			0.437 µM	> 25 µM	7.55 µM	> 25 µM	3.67 µM	> 25 µM	0.929 µM	> 25 µM	1.27 µM	> 25 µM	19.2 µM	> 25 µM
CCn1c2ccccc2c2cc(C(O)c3cccc4ncccc34)ccc21 (stereo not drawn)	0.0427 µM	0.251 µM	0.0324 µM	4.98 µM	0.0421 µM	6.56 µM			0.0331 µM	20.2 µM	0.0958 µM	19.5 µM	0.122 µM	> 69.4 µM	0.0543 µM	39.4 µM	0.0443 µM	2.32 µM	0.285 µM	> 100 µM
CC(C)CCN[C@@H]1CCc2cc(O)c(N3CC(=O)NS3(=O)=O)c(F)c2C1	> 100 µM	> 100 µM	16.1 µM	> 100 µM	> 100 µM	> 100 µM	> 100 µM	> 100 µM	> 100 µM	> 100 µM	> 100 µM	> 100 µM	> 100 µM	> 100 µM	> 100 µM	> 100 µM			16.8 µM	> 100 µM

Source: PubChem BioAssay (NCI)
